Results on 1 compound are retold here after patent US20260364072A1, “METHODS FOR PROMOTING EXPANSION OF HUMAN CD34+ CELLS IN VIVO AND FOR PROMOTING NEURAL REGENERATION” (THE REGENTS OF THE UNIVERSITY OF CALIFORNIA, priority 2023, published 2026).

One series relates to phospho-STAT3. In words: phospho-STAT3 intracellular flow cytometry. Format: cell-based, human. On the procedure: (§1) Flow cytometry for stem and progenitor cell surface antibody staining was performed as previously described.^14 For phospho-flow, a subset of samples was fixed and permeabilized, then blocked and stained with APC-conjugated ADAR1p150 antibody (cat ab269444, 1:25) and pSTAT3 APC (cat 17-9033-42, 1:10) (Table S2). Fractions were analyzed with the BD LSR FORTESSA™ (Sanford Consortium for Regenerative Medicine Stem Cell Core) and FLOWJO™ software (TreeStar, Ashland, OR).

Another series relates to sAML PDX mouse models. In words: Survival of humanized sAML PDX mice. Format: in vivo, human sAML cells in mice. Here is the method:
Here, we established humanized mouse models using CD34^+ stem cells isolated from the peripheral blood of adult secondary AML (sAML) patients or bone marrow of normal-aged donors (63-79 years old).
The mouse models were screened by staining the PB of each mouse with a human CD45 mAb. Mice with a threshold of human CD45^+ cells >1% were included in the treatment cohort for Rebecchini. The dosing plan involved administering Rebecsinib at a dose of 10 mg/kg, intravenously, twice a week for 2 weeks, with a total of 5 doses. Single cells were isolated from the mouse organs, including PB, SP, and BM, and subjected to staining with human stem cell markers and lineage cell markers.
These mice were monitored for survival throughout the study until they reached the endpoint. Survival data were analyzed using a Log-rank test.

In series [1] the test system is MCL1-L, BCL-XL, BCL-2, SF3B1, SF3B3 transcripts. The experiment in a line: Splicing effects on LSC-enriched anti-apoptotic transcripts and splicing factor gene products. Format: cell-based, human. On the procedure:
For quantitative analysis of splice isoform expression, RNA editing rates, and whole gene expression by qRT-PCR, cells or tissue fragments were harvested in RNA lysis buffer and total RNA was extracted using RNeasy mini or micro extraction kits (QIAGEN, Germantown, MD) following the manufacturer's protocol including a DNase incubation step to digest any trace genomic DNA present. Levels of ADAR1 variants and LSC-specific transcripts were quantified by qRT-PCR as previously described.^14 RNA-editing site-specific qRT-PCR (RESSqPCR) was performed for variants in AZIN1 transcripts.^53 Additional species-specific primers were also designed to quantify intron retention rates in cells treated with Rebecsinib as a biomarker of response to RNA splicing modulation. Specifically, for the two-step SYBR-green based assays, as previously described,^7,14,53 100-1000 ng of RNA were subjected to cDNA synthesis using the SUPERSCRIPT III™ (ThermoFisher Scientific) kit followed by qRT-PCR using SYBR GreenER (ThermoFisher Scientific) master mix according to the manufacturer's recommended procedures. qRT-PCR was performed using SYBR GREENER SUPER MIX™ (Life Technologies) on BioRad iQ5™, C1000 TOUCH™, or BioRad CFX384™ instruments. […] Relative mRNA expression values were calculated using the 2^−ΔCT method, with normalization to untreated or vehicle-treated controls.^54

Series [2] deals with sAML LSC, MF HPC, normal HSPC. In words: Clonogenic survival and replating (self-renewal) assays in stromal co-culture. Format: cell-based, human. An excerpt:
(FIG. 28D, FIG. 28E) Quantification of colony formation (survival, FIG. 28D) and replating (self-renewal, FIG. 28E) of high-risk MF HPC and sAML LSC compared with cord blood (CB) and aged versus young normal bone marrow (a-NBM, y-NBM) controls treated with Rebecsinib at increasing concentrations. Bar graphs show data as mean±SEM and statistical analyses by pairwise t-test and dose-response assays show data as mean±SD and statistical analyses by one-way ANOVA.
Primary patient samples and normal bone marrow controls used for functional assays are described in Table 1. Human HS5 and HS27a^45 or mouse bone marrow cells lines SL (hSCF and hIL3) and M2 (hIL3 and hG-CSF) were irradiated and then mixed at a ratio of 1:1 and incubated overnight for attachment. […] After 2 weeks primary colonies (more than 40 cells) were counted and individual multilineage colonies were plucked, cells resuspended, and re-plated again in fresh MC. Secondary colonies were counted after another 14 days. […]
Human HS5 and HS27a^45 or mouse bone marrow cells lines SL (hSCF and hIL3) and M2 (hIL3 and hG-CSF) were irradiated and then mixed at a ratio of 1:1 and incubated overnight for attachment. […] After 2 weeks primary colonies (more than 40 cells) were counted and individual multilineage colonies were plucked, cells resuspended and re-plated again in fresh MC. Secondary colonies were counted after another 14 days. […]

The next series concerns ADAR1p150. In words: ADAR1p150 protein by intracellular flow cytometry in high-risk MF samples. Format: cell-based, human. The following applies: 72 hr. Here is the method:
(FIG. 28C) Flow cytometry-based quantification of ADAR1 p150 protein expression in high-risk MF samples after in vitro transduction of primary CD34^+ cells with ADAR1 nanoluc-GFP reporter or vector control (pCDH) followed by treatment with vehicle control (DMSO) or Rebecsinib (72 hr).
as §1

In a further series the test system is MF HPC. In words: Viability of high-risk MF CD34+ cells by flow cytometry. Format: cell-based, human. The following applies: 72 hr, compared with vehicle controls. On the procedure:
(FIG. 28B) Flow cytometry-based viable cell counts (5,000 events measured) in high-risk MF samples after in vitro treatment of primary CD34^+ cells with vehicle control (DMSO) or Rebecsinib (72 hr).
Human HS5 and HS27a^45 or mouse bone marrow cells lines SL (hSCF and hIL3) and M2 (hIL3 and hG-CSF) were irradiated and then mixed at a ratio of 1:1 and incubated overnight for attachment. CD34^+ were selected from high-risk MF and sAML primary samples using magnetic beads (Miltenyi Biotec, Germany). As a control, CD34^+ cells from aged normal bone marrow (aNBM), young normal BM (yNBM) and cord blood (All Cells Inc, Alameda, CA) mononuclear cells were utilized. To establish co-cultures, 10,000-15,000 CD34^+ cells were added to SLM2 stroma in 1 ml of MYELOCULT H5100™ (STEMCELL Technologies, Vancouver, Canada). Rebecsinib or DMSO control were added at the initiation of co-culture at indicated concentrations. After one week, cells that were both attached to stroma and floating were collected, resuspended in fresh media and plated in methylcellulose (MC) H4330™ (STEMCELL Technologies) in triplicate. After 2 weeks primary colonies (more than 40 cells) were counted and individual multilineage colonies were plucked, cells resuspended and re-plated again in fresh MC. Secondary colonies were counted after another 14 days. […]

Take `CC[C@H](OC)[C@@H](C)[C@H]1O[C@@H]1[C@@H](O)[C@H](C)/C=C/C=C(\C)[C@H]1OC(=O)C[C@H](O)CC[C@@](C)(O)[C@@H](OC(C)=O)/C=C/[C@@H]1C` [Rebecsinib]: the phospho-STAT3 expression entry with phospho-STAT3 is listed as “reduced phospho-STAT3 expression”. Moreover, in the series on sAML PDX mouse models (compared to vehicle, fedratinib, and the combination of rebecsinib and fedratinib), the “survival of sAML-engrafted mice” value is “survived significantly longer”. Moreover, the “survival time versus single fedratinib” value in the series with sAML PDX mouse models (single rebecsinib vs single fedratinib, p=0.016, Log-rank test) is given as “significantly longer”. The “survival time versus vehicle” value in the series on sAML PDX mouse models (single rebecsinib vs vehicle, p=0.0003, Log-rank test) is reported as “significantly longer”. Moreover, in series [1], the “LSC-enriched anti-apoptotic transcripts, including MCL1-L, BCL-XL, and BCL-2” value is recorded as “reduces”; the “intron retention in splicing factor gene products, such as SF3B1 and SF3B3” value is on record as “induces marked intron retention”. Moreover, the “effect on normal HSPC and mature hematopoietic progeny” value in series [2] (1 μM, compared with DMSO (vehicle)) is on record as “no significant differences”. Moreover, the “clonogenic survival and replating (self-renewal) sensitivity” value in series [2] (sAML LSC vs MF HPC or normal cord blood, young or aged bone marrow HPCs) is given as “greater sensitivity of secondary AML (sAML) LSC”. The ADAR1p150 protein expression entry in the series on ADAR1p150 was “reduced ADAR1p150 protein expression”. In addition, the “MF HPC viability” value in the series on MF HPC is “decreased MF HPC viability”.
